Experimental data reported in PubChem BioAssay (NCI).
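Values below derive from 48-hour exposures of cells grown in 96-well plates, with endpoints linearly interpolated between the two concentrations bracketing the appropriate inhibition level. At the GI50, growth is halved. TGI: concentration producing complete growth inhibition.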

System: MDA-MB-468 breast
Test: NCI-60 cell line screen, 48 h

Structure (SMILES) | GI50 [µM] | TGI [µM]
C=C1c2c(C)nn(-c3ccccc3)c2N(C)C23C[C@@H]1C1(C)c4c(C)nn(-c5ccccc5)c4N(C)C(C)(C[C@H]12)C3 (stereo partly specified) | 2.9 | 27.9
N#CC1=C(N)Oc2c(sc3c(F)cccc23)C1c1ccc(Cl)cc1 (stereo unspecified) | 3.18 | 12.1
CC([C@H]1CCC2C3CCC4C(=O)C(NC=O)=CC[C@]4(C)C3CC[C@@]21C)N(C)C (stereo partly specified) | 1.9 | 6.26
